Target: T1, Gonadotropin-releasing hormone receptor (Homo sapiens, UniProt P30968)
T1 sequence (P30968 whole entry): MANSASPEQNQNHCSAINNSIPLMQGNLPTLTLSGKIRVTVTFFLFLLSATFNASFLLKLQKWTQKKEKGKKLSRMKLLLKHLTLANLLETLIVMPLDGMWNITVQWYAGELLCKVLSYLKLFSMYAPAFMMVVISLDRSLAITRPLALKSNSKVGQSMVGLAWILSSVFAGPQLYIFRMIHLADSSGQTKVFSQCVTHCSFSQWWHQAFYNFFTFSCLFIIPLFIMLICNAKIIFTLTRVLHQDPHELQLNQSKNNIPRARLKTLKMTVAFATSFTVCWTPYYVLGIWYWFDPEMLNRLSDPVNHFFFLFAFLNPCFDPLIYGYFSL
Assay: Displacement of [125I]D-Trp6-LHRH from human GnRH receptor expressed in CHO-K1 cell membranes incubated for 1 hr by competitive binding assay

| SMILES | IC50 |
| --- | --- |
| COc1cccc(CN2CCN(c3c(C)n(Cc4c(F)cccc4F)c(=O)n(C[C@H](N)c4ccccc4)c3=O)CC2)c1 | 0.0148 µM |
| Cc1c(N2CCC(C)CC2)c(=O)n(C[C@H](N)c2ccccc2)c(=O)n1Cc1c(F)cccc1F | 0.0756 µM |
| Cc1c(N2CCN(Cc3cccc(C(F)(F)F)c3)CC2)c(=O)n(C[C@H](N)c2ccccc2)c(=O)n1Cc1c(F)cccc1F | 0.00091 µM |
| Cc1c(N2CCNC(c3ccccc3)C2)c(=O)n(C[C@H](N)c2ccccc2)c(=O)n1Cc1c(F)cccc1F (stereo not given in full) | > 0.1 µM |
| Cc1c(N2CCN(Cc3ccc(O)cc3)CC2)c(=O)n(C[C@H](N)c2ccccc2)c(=O)n1Cc1c(F)cccc1F | 0.0353 µM |
| Cc1c(N2CCN(Cc3cccc(F)c3F)CC2)c(=O)n(C[C@H](N)c2ccccc2)c(=O)n1Cc1c(F)cccc1F | 0.01 µM |
| Cc1c(N2CCN(Cc3ccccc3[N+](=O)[O-])CC2)c(=O)n(C[C@H](N)c2ccccc2)c(=O)n1Cc1c(F)cccc1F | 0.0133 µM |
| Cc1c(N2CCN(Cc3cccc4cccnc34)CC2)c(=O)n(C[C@H](N)c2ccccc2)c(=O)n1Cc1c(F)cccc1C(F)(F)F | > 0.1 µM |
| Cc1c(N2CCN(c3ccccc3)CC2)c(=O)n(C[C@H](N)c2ccccc2)c(=O)n1Cc1c(F)cccc1F | > 1 µM |
| Cc1c(N2CCN(Cc3ccccc3F)CC2)c(=O)n(C[C@H](N)c2ccccc2)c(=O)n1Cc1c(F)cccc1F | 0.0041 µM |
| Cc1c(N2CCCC(Cc3ccccc3)C2)c(=O)n(C[C@H](N)c2ccccc2)c(=O)n1Cc1c(F)cccc1F (stereo not given in full) | > 0.1 µM |
| Cc1c(N2CCN(Cc3ccncc3)CC2)c(=O)n(C[C@H](N)c2ccccc2)c(=O)n1Cc1c(F)cccc1F | > 0.1 µM |
| Cc1c(N2CCN(Cc3cccc(C#N)c3)CC2)c(=O)n(C[C@H](N)c2ccccc2)c(=O)n1Cc1c(F)cccc1F | 0.005 µM |
| Cc1c(N2CCN(Cc3ccc(Cl)cc3)CC2)c(=O)n(C[C@H](N)c2ccccc2)c(=O)n1Cc1c(F)cccc1F | 0.014 µM |
| Cc1c(N2CCCC(C)C2)c(=O)n(C[C@H](N)c2ccccc2)c(=O)n1Cc1c(F)cccc1F (stereo not given in full) | 0.0803 µM |
| Cc1c(N2CCN(Cc3ccccc3OC(F)(F)F)CC2)c(=O)n(C[C@H](N)c2ccccc2)c(=O)n1Cc1c(F)cccc1F | > 0.1 µM |
| Cc1ccc(CN2CCN(c3c(C)n(Cc4c(F)cccc4F)c(=O)n(C[C@H](N)c4ccccc4)c3=O)CC2)cc1 | 0.0655 µM |
| Cc1c(N2CCN(Cc3ccccc3Cl)CC2)c(=O)n(C[C@H](N)c2ccccc2)c(=O)n1Cc1c(F)cccc1F | 0.0191 µM |
| Cc1c(N2CCCCC2C)c(=O)n(C[C@H](N)c2ccccc2)c(=O)n1Cc1c(F)cccc1F (stereo not given in full) | > 0.1 µM |
| Cc1c(N2CCN(S(=O)(=O)c3ccccc3)CC2)c(=O)n(C[C@H](N)c2ccccc2)c(=O)n1Cc1c(F)cccc1F | > 0.1 µM |
| Cc1c(N2CCN(Cc3ccccc3)CC2)c(=O)n(C[C@H](N)c2ccccc2)c(=O)n1Cc1c(F)cccc1F | 0.012 µM |
| Cc1c(N2CCN(Cc3ccc([N+](=O)[O-])cc3)CC2)c(=O)n(C[C@H](N)c2ccccc2)c(=O)n1Cc1c(F)cccc1F | 0.0369 µM |
| Cc1c(N2CCN(Cc3ccc(C(F)(F)F)cc3)CC2)c(=O)n(C[C@H](N)c2ccccc2)c(=O)n1Cc1c(F)cccc1F | 0.0657 µM |
| Cc1c(N2CCN(Cc3ccc(C#N)cc3)CC2)c(=O)n(C[C@H](N)c2ccccc2)c(=O)n1Cc1c(F)cccc1F | 0.01 µM |
| Cc1c(N2CCN(Cc3ccccc3C(F)(F)F)CC2)c(=O)n(C[C@H](N)c2ccccc2)c(=O)n1Cc1c(F)cccc1F | 0.0656 µM |
| Cc1c(N2CCN(Cc3cccc(OC(F)(F)F)c3)CC2)c(=O)n(C[C@H](N)c2ccccc2)c(=O)n1Cc1c(F)cccc1F | 0.0015 µM |
| Cc1ccccc1CN1CCN(c2c(C)n(Cc3c(F)cccc3F)c(=O)n(C[C@H](N)c3ccccc3)c2=O)CC1 | 0.0738 µM |
| Cc1c(N2CCN[C@@H](Cc3ccccc3)C2)c(=O)n(C[C@H](N)c2ccccc2)c(=O)n1Cc1c(F)cccc1F | > 0.1 µM |

| SMILES | IC50 |
| --- | --- |
| Cc1c(N2CCN(Cc3cccc(C(F)(F)F)c3F)CC2)c(=O)n(C[C@H](N)c2ccccc2)c(=O)n1Cc1c(F)cccc1F | 0.0011 µM |
| Cc1c(N2CCCC(c3ccccc3)C2)c(=O)n(C[C@H](N)c2ccccc2)c(=O)n1Cc1c(F)cccc1F (stereo not given in full) | > 0.1 µM |
| Cc1c(N2CCC(Cc3ccccc3)CC2)c(=O)n(C[C@H](N)c2ccccc2)c(=O)n1Cc1c(F)cccc1F | 0.0342 µM |
| Cc1c(N2CCN(CC3COc4ccccc4O3)CC2)c(=O)n(C[C@H](N)c2ccccc2)c(=O)n1Cc1c(F)cccc1F (stereo not given in full) | > 0.1 µM |
| Cc1c(N2CCN(Cc3ccccn3)CC2)c(=O)n(C[C@H](N)c2ccccc2)c(=O)n1Cc1c(F)cccc1F | > 0.1 µM |
| Cc1c(N2CCN(CC3CCCCC3)CC2)c(=O)n(C[C@H](N)c2ccccc2)c(=O)n1Cc1c(F)cccc1F | > 1 µM |
| Cc1c(N2CCN(CC(=O)c3ccccc3Cl)CC2)c(=O)n(C[C@H](N)c2ccccc2)c(=O)n1Cc1c(F)cccc1F | > 0.1 µM |
| Cc1c(N2CCN(CCCc3ccccc3)CC2)c(=O)n(C[C@H](N)c2ccccc2)c(=O)n1Cc1c(F)cccc1F | > 0.1 µM |
| Cc1c(N2CCNCC2)c(=O)n(C[C@H](N)c2ccccc2)c(=O)n1Cc1c(F)cccc1F | > 1 µM |
| Cc1c(N2CCN(Cc3cccc(Cl)c3)CC2)c(=O)n(C[C@H](N)c2ccccc2)c(=O)n1Cc1c(F)cccc1F | 0.0031 µM |
| COc1ccc(CN2CCN(c3c(C)n(Cc4c(F)cccc4F)c(=O)n(C[C@H](N)c4ccccc4)c3=O)CC2)cc1 | > 0.1 µM |
| Cc1cccc(CN2CCN(c3c(C)n(Cc4c(F)cccc4F)c(=O)n(C[C@H](N)c4ccccc4)c3=O)CC2)c1 | > 0.1 µM |
| Cc1c(N2CCN(c3ccccn3)CC2)c(=O)n(C[C@H](N)c2ccccc2)c(=O)n1Cc1c(F)cccc1F | > 1 µM |
| Cc1c(N2CCN(Cc3ccccc3C#N)CC2)c(=O)n(C[C@H](N)c2ccccc2)c(=O)n1Cc1c(F)cccc1F | 0.0068 µM |
| Cc1c(N2CCN(Cc3cccc(F)c3)CC2)c(=O)n(C[C@H](N)c2ccccc2)c(=O)n1Cc1c(F)cccc1F | 0.0038 µM |
| Cc1c(N2CCN(CCc3ccccc3)CC2)c(=O)n(C[C@H](N)c2ccccc2)c(=O)n1Cc1c(F)cccc1F | > 0.1 µM |
| Cc1c(N2CCN(Cc3cccnc3)CC2)c(=O)n(C[C@H](N)c2ccccc2)c(=O)n1Cc1c(F)cccc1F | 0.0139 µM |
| Cc1c(N2CCN(Cc3ccc[nH]c3=O)CC2)c(=O)n(C[C@H](N)c2ccccc2)c(=O)n1Cc1c(F)cccc1C(F)(F)F | > 0.1 µM |
| Cc1c(N2CCC(c3ccccc3)C2)c(=O)n(C[C@H](N)c2ccccc2)c(=O)n1Cc1c(F)cccc1F (stereo not given in full) | > 0.1 µM |
| Cc1c(N2CCN(Cc3cccc(C(=O)O)c3)CC2)c(=O)n(C[C@H](N)c2ccccc2)c(=O)n1Cc1c(F)cccc1C(F)(F)F | > 0.1 µM |
| Cc1c(N2CCN(Cc3ccc(F)cc3)CC2)c(=O)n(C[C@H](N)c2ccccc2)c(=O)n1Cc1c(F)cccc1F | 0.0486 µM |
| Cc1c(N2CCCCC2)c(=O)n(C[C@H](N)c2ccccc2)c(=O)n1Cc1c(F)cccc1F | 0.129 µM |
| Cc1c(N2CCc3ccccc3C2)c(=O)n(C[C@H](N)c2ccccc2)c(=O)n1Cc1c(F)cccc1F | > 0.1 µM |
| Cc1c(N2CCN(C(=O)c3ccccc3)CC2)c(=O)n(C[C@H](N)c2ccccc2)c(=O)n1Cc1c(F)cccc1F | > 0.1 µM |
| Cc1c(N2CCN[C@H](Cc3ccccc3)C2)c(=O)n(C[C@H](N)c2ccccc2)c(=O)n1Cc1c(F)cccc1F | > 0.1 µM |
| COc1ccccc1CN1CCN(c2c(C)n(Cc3c(F)cccc3F)c(=O)n(C[C@H](N)c3ccccc3)c2=O)CC1 | > 1 µM |
| Cc1c(N2CCC(Cc3ccccc3)C2)c(=O)n(C[C@H](N)c2ccccc2)c(=O)n1Cc1c(F)cccc1F (stereo not given in full) | > 0.1 µM |

Source: ChEMBL document CHEMBL4428102, “Discovery of an Orally Bioavailable Gonadotropin-Releasing Hormone Receptor Antagonist” (J Med Chem, 2016)
